From patent US12498382B2, “Biomarkers for vitiligo” (INCYTE CORPORATION, priority 2019, dated 2025)

Tested on: HaCaT cells
Assay: Concentrations of inflammatory mediators produced by HaCaT cells stimulated with TNFα and IFNγ in presence/absence of JAK inhibitors (ProCarta)
Type: cell-based, human
Settings: TNFα+IFNγ 25 ng/mL each
Description: After 48 hours, cell culture media was removed from 24 well plates and replaced with 250 uL of media containing serial diluted drug, then incubated for 15 minutes at 37° C./5% CO2. […] The final concentration of Recombinant Human Interferon gamma and Recombinant Human Tumor Necrosis Factor alpha was 25 ng/mL of each cytokine. Cytokine stimulation added to wells containing drug brought the final concentrations for each drug treatment to 25 nM, 50 nM, 100 nM, and 200 nM. Treated plates were mixed by gentle agitation for 30 seconds then incubated for 24 hours at 37° C./5% CO2. At the end of the 24 hour incubation media was immediately removed from each plate.
Media was incubated with antibody conjugated beads designed to bind to the epitopes of specific target proteins and identify the bound protein through the bead's distinctive spectral pattern. Biotinylated detection antibodies, designed to bind to different epitopes of the same target proteins, and Streptavidin-PE are added to assay plates to quantify the amount of the target proteins. Assay plates were read on the Luminex 200 and data were expressed as Net Median Fluorescence Intensity. […] The concentration of each protein was extrapolated from the antigen standard curve and concentrations were expressed as pg/mL (Table 15).

[1] = drug conc. 1st of 4 rows (cell not shown; prob. 25 nM)
[2] = drug conc. 2nd of 4 rows (cell not shown; prob. 50 nM)
[3] = drug conc. 3rd of 4 rows (cell not shown; prob. 100 nM)

Cc1n[nH]c(C)c1-c1cnn(C2(CC#N)CN(c3cc(F)c(C(=O)N[C@@H](C)C(F)(F)F)cc3F)C2)c1 [Cpd C, 4-[3-(Cyanomethyl)-3-(3′,5′-dimethyl-1H,1′H-4,4′-bipyrazol-1-yl)azetidin-1-yl]-2,5-difluoro-N-[(1S)-2,2,2-trifluoro-1-methylethyl]benzamide]
IFN gamma concentration [1]: 27765.18 ± 4653.71 pg/mL
IL1RA concentration [1]: 6175.66 ± 277.7 pg/mL
IL1 alpha concentration [1]: 7.74 ± 0.36 pg/mL
IL1 beta concentration [1]: 8.88 ± 0.35 pg/mL
IL2 concentration [1]: 31.39 ± 1.44 pg/mL
IL4 concentration [1]: 8.31 ± 2.19 pg/mL
IL5 concentration [1]: 27.03 ± 1.35 pg/mL
IL6 concentration [1]: 774.87 ± 31.09 pg/mL
IL7 concentration [1]: 2.18 ± 0.15 pg/mL
IL8 concentration [1]: 2879.27 ± 117.07 pg/mL
IL9 concentration [1]: 3.37 ± 0.33 pg/mL
IL10 concentration [1]: 0.75 ± 0.05 pg/mL
IL12p70 concentration [1]: 1.97 ± 0.22 pg/mL
IL13 concentration [1]: 2.93 ± 0.41 pg/mL
IL15 concentration [1]: 3.97 ± 0.71 pg/mL
IL17A concentration [1]: 4.27 ± 0.42 pg/mL
IL18 concentration [1]: 163.63 ± 3.29 pg/mL
IL21 concentration [1]: 2.71 ± 0.18 pg/mL
IL22 concentration [1]: 7.15 ± 1.16 pg/mL
IL23 concentration [1]: 7.43 ± 0 pg/mL
IL27 concentration [1]: 8.88 ± 1.64 pg/mL
IL31 concentration [1]: 3.52 ± 0.53 pg/mL
IP-10/CXCL10 concentration [1]: 3999.9 ± 370.53 pg/mL
LIF concentration [1]: 67.72 ± 2.04 pg/mL
MCP1 concentration [1]: 15200 ± 0 pg/mL
MIP1 alpha concentration [1]: 101.71 ± 3.84 pg/mL
MIP1 beta concentration [1]: 318.92 ± 6.03 pg/mL
PDGF-BB concentration [1]: 4.93 ± 0.21 pg/mL
PIGF-1 concentration [1]: 58.04 ± 2.17 pg/mL
RANTES concentration [1]: 216.88 ± 13.45 pg/mL
SCF concentration [1]: 4.34 ± 0.19 pg/mL
SDF-1 alpha concentration [1]: 3503.89 ± 90.15 pg/mL
TNF alpha concentration [1]: 11212.78 ± 1168.53 pg/mL
TNF beta concentration [1]: 5.68 ± 1.4 pg/mL
VEGF-A concentration [1]: 1261.47 ± 37.95 pg/mL
VEGF-D concentration [1]: 8.6 ± 0.74 pg/mL
IFN gamma concentration [2]: 23531.94 ± 2644.35 pg/mL
IL1RA concentration [2]: 6065 ± 325.72 pg/mL
IL1 alpha concentration [2]: 7.01 ± 0.39 pg/mL
IL1 beta concentration [2]: 8.72 ± 0.47 pg/mL
IL2 concentration [2]: 29.87 ± 1.38 pg/mL
IL4 concentration [2]: 5.24 ± 0.99 pg/mL
IL5 concentration [2]: 26.49 ± 1.58 pg/mL
IL6 concentration [2]: 710.89 ± 36.7 pg/mL
IL7 concentration [2]: 2.02 ± 0.07 pg/mL
IL8 concentration [2]: 2869.74 ± 167.65 pg/mL
IL9 concentration [2]: 3.7 ± 0^ pg/mL
IL10 concentration [2]: 0.74 ± 0.06 pg/mL
IL12p70 concentration [2]: 1.72 ± 0.2 pg/mL
IL13 concentration [2]: 2.24 ± 0.28 pg/mL
IL15 concentration [2]: 2.29 ± 0.44 pg/mL
IL17A concentration [2]: 3.48 ± 0.39 pg/mL
IL18 concentration [2]: 156.41 ± 4.19 pg/mL
IL21 concentration [2]: 2.88 ± 0 pg/mL
IL22 concentration [2]: 8.03 ± 0.87 pg/mL
IL23 concentration [2]: 7.43 ± 0 pg/mL
IL27 concentration [2]: 5.98 ± 1.08 pg/mL
IL31 concentration [2]: 3.36 ± 0.27 pg/mL
IP-10/CXCL10 concentration [2]: 3665.2 ± 277.11 pg/mL
LIF concentration [2]: 67.64 ± 3.17 pg/mL
MCP1 concentration [2]: 33175.72 ± 17975.72 pg/mL
MIP1 alpha concentration [2]: 104.54 ± 6.56 pg/mL
MIP1 beta concentration [2]: 318.37 ± 9.88 pg/mL
PDGF-BB concentration [2]: 5.22 ± 0.25 pg/mL
PIGF-1 concentration [2]: 55.59 ± 2.74 pg/mL
RANTES concentration [2]: 201.93 ± 15.44 pg/mL
SCF concentration [2]: 4.25 ± 0.22 pg/mL
SDF-1 alpha concentration [2]: 3471.01 ± 141.19 pg/mL
TNF alpha concentration [2]: 10367.04 ± 1016.28 pg/mL
TNF beta concentration [2]: 5.54 ± 0.56 pg/mL
VEGF-A concentration [2]: 1268.91 ± 59.05 pg/mL
VEGF-D concentration [2]: 8.44 ± 0.66 pg/mL
IFN gamma concentration [3]: 23113.79 ± 2086.62 pg/mL
IL1RA concentration [3]: 6167.55 ± 367.54 pg/mL
IL1 alpha concentration [3]: 7.27 ± 0.47 pg/mL
IL1 beta concentration [3]: 8.55 ± 0.34 pg/mL
IL2 concentration [3]: 30.51 ± 1.23 pg/mL
IL4 concentration [3]: 6.26 ± 1.35 pg/mL
IL5 concentration [3]: 28.64 ± 1.4 pg/mL
IL6 concentration [3]: 690.4 ± 35.25 pg/mL
IL7 concentration [3]: 2.04 ± 0.11 pg/mL
IL8 concentration [3]: 3035.52 ± 206.85 pg/mL
IL9 concentration [3]: 4.16 ± 0.46 pg/mL
IL10 concentration [3]: 0.75 ± 0.07 pg/mL
IL12p70 concentration [3]: 1.75 ± 0.23 pg/mL
IL13 concentration [3]: 2.58 ± 0.36 pg/mL
IL15 concentration [3]: 2.42 ± 0.54 pg/mL
IL17A concentration [3]: 3.77 ± 0.42 pg/mL
IL18 concentration [3]: 162.12 ± 5.14 pg/mL
